Like-named read-outs stand apart in the source and are kept apart here.
Legend:
Assay in all cases: CellTiter-Glo, NCI60 panel
Type in all cases: cell-based
UACC-257 = conditions: Melanoma; for GI50: Homo sapiens
Outline: (§1)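 Cells plated at 1,000–10,000/well; 48 h drug, 37° C; CellTiter-Glo luminescence (ATP); value = conc. for 50% growth reduction.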

OVCAR-4 = conditions: Ovarian; for GI50: Homo sapiens
Outline: as §1

UO-31 = conditions: Renal; for GI50: Homo sapiens
Outline: as §1

SF-268 = conditions: CNS; for GI50: Homo sapiens
Outline: as §1

M14 = conditions: Melanoma; for GI50: Homo sapiens
Outline: as §1

HL-60 = conditions: Leukemia; for GI50: Homo sapiens
Outline: as §1

K-562 = conditions: for GI50: Homo sapiens, K562, Leukemia
Outline: as §1

[1] = GI50 in nM, read-out: Log(GI50) (converted)

SMILES: CC(C)(C)[C@H](c1nc(-c2cc(F)ccc2F)cn1Cc1ccccc1)N(CC[C@H](N)CF)C(=O)CO [Compound IIa]
- GI50 (UACC-257; [1]): 10 nM
- GI50 (UACC-257; read-out: GI50): 10 nM
- Differential vs mean Log(GI50) (UACC-257): −0.669
- GI50 (OVCAR-4; [1]): 10 nM
- GI50 (OVCAR-4; read-out: GI50): 10 nM
- Differential vs mean Log(GI50) (OVCAR-4): −0.669
- GI50 (UO-31; [1]): 10 nM
- GI50 (UO-31; read-out: GI50): 10 nM
- Differential vs mean Log(GI50) (UO-31): −0.669
- Differential vs mean Log(GI50) (SF-268): −0.669
- GI50 (SF-268; [1]): 10 nM
- GI50 (SF-268; read-out: GI50): 10 nM
- GI50 (M14; [1]): 0.209 nM
- GI50 (M14; read-out: GI50): 0.209 nM
- Differential vs mean Log(GI50) (M14): 1.011
- GI50 (HL-60; [1]): 0.165 nM
- GI50 (HL-60; read-out: GI50): 0.165 nM
- Differential vs mean Log(GI50) (HL-60): 1.114
- GI50 (K-562; [1]): 0.218 nM
- GI50 (K-562; read-out: GI50): 0.218 nM
- Differential vs mean Log(GI50) (K-562; Leukemia): 0.993

From US8252832B2, “Kinesin inhibitors as cancer therapeutics” (Novartis AG, priority 2007, dated 2012)
